This note sets out measurements from patent US20220041616A1, “SPIRO COMPOUND AND MEDICAL USES THEREOF” (The National Institutes of Pharmaceutical R&D Co., Ltd., priority 2018, published 2022).

Assay [1] addresses T1, ACC1 (Homo sapiens, UniProt Q13085).
T1 construct: purchased BPS bioscience
Description: In vitro inhibition of ACC1 activity, ADP-Glo Kinase Analysis. Particulars: 1 nM ACC1, 10 μM acetyl-CoA, 20 μM ATP. It counts as biochemical. Put shortly:
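Enzyme was preincubated with compound for 15 min, then reacted for 30 min at room temperature in 5% DMSO, with ADP measured by ADP-Glo luminescence. ACC1: 1 nM, with 10 μM acetyl-CoA, 30 mM NaHCO3 and 20 μM ATP. ACC2: 1.1 nM, with 20 μM acetyl-CoA, 20 mM NaHCO3 and 15 μM ATP.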
Background: In ADP-Glo the light output rises with the ADP produced.

Assay [2] has as its system HepG2 cells. Put plainly: In vitro inhibition of proliferation of HepG2 cells, CellTiter-Glo. As to conditions: 3 days incubation, top concentration 30 μM. It counts as cell-based, human. From the text:
CellTiter-Glo Analysis Kit (Promega) was used for the detection of the inhibitory effect of the present compound on the proliferation of HepG2 cells. The CellTiter-Glo detection method uses luciferase, which requires ATP for its reaction and luminescence. The intensity of the luminescent signal depends on the amount of ATP, and the amount of ATP depends on the number of living cells. Said analysis only requires that ATP in living cells is converted to luminescence by UltraGlo™ luciferase after treatment with the tested drug, so that the inhibitory effect of the compound is detected based on the luminescence intensity, and its IC50 value is calculated.
a. HepG2 cells were purchased from the American type culture collection (ATCC) resource bank. Cells were cultured in MEM (GIBCO) containing 10% fetal bovine serum, penicillin (100 units/mL) and streptomycin (100 μg/mL), and then incubated in a 37° C. incubator containing 5% carbon dioxide, and passaged once every 2 to 3 days.
b. On the first day, 800 HepG2 cells were inoculated in each well of a 384-well cell culture plate, and then incubated in a 37° C. incubator containing 5% carbon dioxide.
c. On the second day, the medium was changed to that containing the compound. The concentrations of the compound were 30 μM, 10 μM, 3.33 μM, 1.11 μM, 0.37 μM, 0.123 μM, 0.0411 μM, 0.0137 μM, 0.00457 μM and 0.00152 μM. The final concentration of DMSO was 0.3% (v/v). The plate was incubated for 3 days in a incubator containing 5% carbon dioxide at 37° C. The reaction system with paclitaxel at a final concentration of 1 μM was used as positive control; the reaction system with no compound but DMSO at a final concentration of 0.3% was used as negative control.
d. […]
f. The chemiluminescence signal value was read with Envision 2104 instrument.
The average value of the positive and negative control well and the standard deviation were calculated. The percentage inhibition rate was calculated according to the following formula: 100×[1−(compound−average value of positive control)/(average value of negative control−average value of positive control)]. […]

Assay [3] deals with ACC2 (Homo sapiens, UniProt O00763). Put plainly: In vitro inhibition of ACC2 activity, ADP-Glo Kinase Analysis. It counts as biochemical. As to conditions: 1.1 nM ACC2, 20 μM acetyl-CoA, 15 μM ATP. The text has this: ADP-Glo™ Kinase Analysis Kit (Promega) is used for the in vitro analysis of the inhibitory effect of the present compound on ACC1 or ACC2. ADP-Glo™ Kinase Analysis is a kinase detection analysis of luminescence method. ADP is produced in the process of catalyzing the substrate by ACC. ADP is converted into ATP which is then converted into light by Ultra-Glo™ luciferase. ADP is quantified by detecting the light signal, thus the enzyme activity can be measured by quantification of the ADP amount produced during the enzyme reaction. The analysis is carried out in two steps: in the first step, after the kinase reaction, a portion of ADP-Glo™ reagent equal in volume to the kinase reaction system is added to terminate the reaction and consume the remaining ATP; in the second step, a kinase detection reagent is added, which not only converts ADP into ATP, but also uses a coupled luciferase/luciferin reaction to detect newly synthesized ATP.
a. 10 mM compound stock solution (the present compound was dissolved in 100% DMSO to prepare the 10 mM stock solution) was diluted 50-fold to 200 μM with 100% DMSO, and then diluted in equal proportions (1:3) in a 96-well dilution plate (249944, Nunc). The gradient concentrations of the compound were 200 μM, 66.67 μM, 22.22 μM, 7.41 μM, 2.47 μM, 0.823 μM, 0.274 μM, 0.0914 μM, 0.0305 μM, 0.0102 μM, 0.00339 μM and 0.00113 μM.
b. 4.5 μL ACC1 working solution (BPS bioscience) (2.22 nM) was added to each well of a 384-well test plate (6007290, Perkin Elmer).
c. 0.5 μL of the serially diluted compound (prepared in step a) was added to each well of the 384-well test plate, which was centrifuged at 1000 rpm for 1 min and then incubated at room temperature for 15 min. […]
g. The chemiluminescence signal was detected with Perkin Elmer EnVision 2104. […]
The average value of the positive and negative control well and the standard deviation were calculated. The inhibition percentage was calculated according to the following formula: 100×[1−(compound−average value of positive control)/(average value of negative control-average value of positive control)]. […]

ACC2, sequence (O00763 whole entry): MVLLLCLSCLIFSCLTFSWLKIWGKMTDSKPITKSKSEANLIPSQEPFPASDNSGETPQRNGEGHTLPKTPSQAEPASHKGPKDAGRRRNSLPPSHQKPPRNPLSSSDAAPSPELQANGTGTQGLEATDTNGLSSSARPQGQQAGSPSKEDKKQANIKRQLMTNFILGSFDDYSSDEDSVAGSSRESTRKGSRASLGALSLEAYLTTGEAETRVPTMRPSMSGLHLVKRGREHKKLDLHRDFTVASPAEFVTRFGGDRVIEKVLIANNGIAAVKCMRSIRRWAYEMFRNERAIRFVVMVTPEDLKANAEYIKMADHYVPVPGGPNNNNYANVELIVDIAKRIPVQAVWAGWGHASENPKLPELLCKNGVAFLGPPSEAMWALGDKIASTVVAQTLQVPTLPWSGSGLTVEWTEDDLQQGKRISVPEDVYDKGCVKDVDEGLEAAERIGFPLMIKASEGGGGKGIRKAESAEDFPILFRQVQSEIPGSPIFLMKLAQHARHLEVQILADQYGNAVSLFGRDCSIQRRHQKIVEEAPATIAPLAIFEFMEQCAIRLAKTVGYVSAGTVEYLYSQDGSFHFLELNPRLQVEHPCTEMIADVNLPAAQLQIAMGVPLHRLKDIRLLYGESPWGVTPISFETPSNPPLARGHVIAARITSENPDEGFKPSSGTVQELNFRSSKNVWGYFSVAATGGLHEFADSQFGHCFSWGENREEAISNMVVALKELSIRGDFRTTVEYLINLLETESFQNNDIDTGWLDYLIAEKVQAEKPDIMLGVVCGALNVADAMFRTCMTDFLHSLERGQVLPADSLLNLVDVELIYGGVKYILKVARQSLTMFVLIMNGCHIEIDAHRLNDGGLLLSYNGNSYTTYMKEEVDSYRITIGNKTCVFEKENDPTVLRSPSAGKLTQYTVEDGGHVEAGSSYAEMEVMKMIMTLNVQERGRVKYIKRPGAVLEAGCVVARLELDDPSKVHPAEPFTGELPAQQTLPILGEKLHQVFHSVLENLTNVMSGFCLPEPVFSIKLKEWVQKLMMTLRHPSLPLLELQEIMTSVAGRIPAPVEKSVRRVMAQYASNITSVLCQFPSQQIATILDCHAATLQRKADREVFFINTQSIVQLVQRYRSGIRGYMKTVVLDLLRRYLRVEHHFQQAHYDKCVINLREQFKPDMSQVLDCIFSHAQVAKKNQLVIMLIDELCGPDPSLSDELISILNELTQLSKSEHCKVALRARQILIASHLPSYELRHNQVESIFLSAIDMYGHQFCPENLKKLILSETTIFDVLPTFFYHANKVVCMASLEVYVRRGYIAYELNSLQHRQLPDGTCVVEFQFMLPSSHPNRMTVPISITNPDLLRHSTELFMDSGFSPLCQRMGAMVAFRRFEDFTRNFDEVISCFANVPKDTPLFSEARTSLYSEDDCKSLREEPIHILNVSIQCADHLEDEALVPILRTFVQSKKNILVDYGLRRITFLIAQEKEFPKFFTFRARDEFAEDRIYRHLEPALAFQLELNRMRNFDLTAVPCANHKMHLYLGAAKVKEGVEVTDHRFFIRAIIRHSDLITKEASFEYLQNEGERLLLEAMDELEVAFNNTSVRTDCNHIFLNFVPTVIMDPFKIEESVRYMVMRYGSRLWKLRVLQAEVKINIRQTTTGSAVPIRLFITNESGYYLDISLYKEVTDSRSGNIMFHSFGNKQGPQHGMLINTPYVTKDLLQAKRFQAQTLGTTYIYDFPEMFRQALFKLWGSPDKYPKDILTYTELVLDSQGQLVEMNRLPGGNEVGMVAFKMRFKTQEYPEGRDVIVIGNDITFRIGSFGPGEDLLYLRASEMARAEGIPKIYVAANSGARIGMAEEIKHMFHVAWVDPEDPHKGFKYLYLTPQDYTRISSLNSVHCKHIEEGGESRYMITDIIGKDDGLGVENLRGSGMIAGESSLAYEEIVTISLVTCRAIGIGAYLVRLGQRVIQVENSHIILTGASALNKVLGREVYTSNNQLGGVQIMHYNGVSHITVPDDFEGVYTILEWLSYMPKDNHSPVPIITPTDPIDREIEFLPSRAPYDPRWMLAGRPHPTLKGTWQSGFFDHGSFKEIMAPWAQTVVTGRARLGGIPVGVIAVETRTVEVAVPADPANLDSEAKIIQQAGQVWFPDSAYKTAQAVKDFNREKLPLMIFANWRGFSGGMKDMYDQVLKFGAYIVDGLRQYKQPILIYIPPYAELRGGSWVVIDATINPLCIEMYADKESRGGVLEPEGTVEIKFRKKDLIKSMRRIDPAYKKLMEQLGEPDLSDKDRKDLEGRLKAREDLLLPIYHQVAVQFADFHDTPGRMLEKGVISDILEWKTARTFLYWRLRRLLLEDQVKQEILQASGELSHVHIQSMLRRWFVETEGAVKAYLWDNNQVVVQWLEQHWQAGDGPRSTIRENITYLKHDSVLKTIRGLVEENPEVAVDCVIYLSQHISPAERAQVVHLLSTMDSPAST

For `COc1ccccc1C(CN1C(=O)C2(CCC(C(=O)O)C2)C(=O)c2c1sc(-c1ncco1)c2C)OC1CCOCC1` (mixture of isomers) [Compound 5x, 7′-(2-(2-methoxyphenyl)-2-((tetrahydro-2H-pyran-4-yl)oxy)ethyl)-3′-methyl-2′-(oxazol-2-yl)-4′,6′-dioxo-6′,7′-dihydro-4′H-spiro[cyclopentane-1,5′-thieno[2,3-b]pyridine]-3-carboxylic Acid], the IC50 (commonly the concentration at which inhibition is half-maximal) in assay [1] was under 10 nM; in assay [2] (Homo sapiens, HepG2, 72 h), over 30 µM.

As to `COc1ccccc1C(CN1C(=O)C2(CCC(C(=O)O)C2)C(=O)c2c1sc(-c1ncco1)c2C)OC1CCOCC1` (mixture of isomers) [Compound 5y, 7′-(2-(2-methoxyphenyl)-2-((tetrahydro-2H-pyran-4-yl)oxy)ethyl)-3′-methyl-2′-(oxazol-2-yl)-4′,6′-dioxo-6′,7′-dihydro-4′H-spiro[cyclopentane-1,5′-thieno[2,3-b]pyridine]-3-carboxylic Acid], the IC50 is under 10 nM in assay [1] and over 30 µM in assay [2].

Consider `COc1ccccc1C(CN1C(=O)C2(CC(C(=O)O)C2)C(=O)c2c1sc(-c1ncco1)c2C)OC1CCOCC1` (mixture of isomers) [Compound 8, 7′-(2-(2-methoxyphenyl)-2-((tetrahydro-2H-pyran-4-yl)oxy)ethyl)-3′-methyl-2′-(oxazol-2-yl)-4′,6′-dioxo-6′,7′-dihydro-4′H-spiro[cyclobutane-1,5′-thieno[2,3-b]pyridine]-3-carboxylic Acid], for which the IC50 in assay [1] is under 10 nM; in assay [2] (Homo sapiens, HepG2, 72 h), over 30 µM.

Take `COc1ccccc1C(CN1C(=O)C2(CCC(C(=O)O)C2)C(=O)c2c1sc(-c1ncco1)c2C)OC1CCOCC1` (single isomer, unassigned) [Compound 5b, 7′-(2-(2-methoxyphenyl)-2-((tetrahydro-2H-pyran-4-yl)oxy)ethyl)-3′-methyl-2′-(oxazol-2-yl)-4′,6′-dioxo-6′,7′-dihydro-4′H-spiro[cyclopentane-1,5′-thieno[2,3-b]pyridine]-3-carboxylic Acid]: the IC50 in assay [1] and in assay [3] was under 10 nM throughout.

Take `COc1ccccc1C(CN1C(=O)C2(CC(C(=O)O)C2)C(=O)c2c1sc(-c1ncco1)c2C)OC1CCOCC1` (single isomer, unassigned) [Compound 8d, 7′-(2-(2-methoxyphenyl)-2-((tetrahydro-2H-pyran-4-yl)oxy)ethyl)-3′-methyl-2′-(oxazol-2-yl)-4′,6′-dioxo-6′,7′-dihydro-4′H-spiro[cyclobutane-1,5′-thieno[2,3-b]pyridine]-3-carboxylic Acid]: the 50% inhibitory concentration (IC50) in assay [1] and in assay [3] was under 10 nM each time.

With `COc1ccccc1[C@H](CN1c2sc(-c3ncco3)c(C)c2C(=O)[C@]2(C[C@H](C(=O)O)C2)C1=O)OC1CCOCC1` [Compound 8c, 7′-(2-(2-methoxyphenyl)-2-((tetrahydro-2H-pyran-4-yl)oxy)ethyl)-3′-methyl-2′-(oxazol-2-yl)-4′,6′-dioxo-6′,7′-dihydro-4′H-spiro[cyclobutane-1,5′-thieno[2,3-b]pyridine]-3-carboxylic Acid], the concentration for half-maximal inhibition (IC50) in assay [1] and in assay [3] was under 10 nM in each case.
